Legend:
[1] = biological target: T1, FUCA1 (recombinant human GH29 α-L-fucosidase per table title) (Homo sapiens, UniProt P04066); assay: In situ inhibition of FUCA1 in living fibroblasts; format: cell-based
T1 construct: endogenous in cells; host or cells: fibroblasts
T1 sequence (P04066 32-466): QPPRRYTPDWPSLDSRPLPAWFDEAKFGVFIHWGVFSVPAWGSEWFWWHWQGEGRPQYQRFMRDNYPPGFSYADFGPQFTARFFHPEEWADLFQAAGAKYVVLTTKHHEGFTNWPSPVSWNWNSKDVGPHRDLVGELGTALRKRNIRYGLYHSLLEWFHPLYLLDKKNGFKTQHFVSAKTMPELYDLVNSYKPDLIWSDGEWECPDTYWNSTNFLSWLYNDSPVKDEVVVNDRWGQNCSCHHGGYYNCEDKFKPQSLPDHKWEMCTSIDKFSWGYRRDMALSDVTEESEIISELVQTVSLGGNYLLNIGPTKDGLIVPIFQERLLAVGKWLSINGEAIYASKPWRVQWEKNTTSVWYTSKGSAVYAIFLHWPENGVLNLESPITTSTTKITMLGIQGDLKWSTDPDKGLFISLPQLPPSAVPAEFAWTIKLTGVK

[2] = biological target: T2, recombinant human FUCA1 (human lysosomal α-L-fucosidase) (Homo sapiens, UniProt P04066); assay: In vitro inhibition of FUCA1 activity, 4-methylumbelliferyl-α-L-fucopyranoside substrate, lysates of COS-7 cells over-expressing enzyme; format: biochemical
T2 construct: expressed in transfected cells; host or cells: COS-7
T2 sequence (P04066 32-466): T1 sequence (P04066 32-466)
Experimental: Having the cyclophellitol aziridine inhibitors and probes in hand, we determined their inhibitory potency towards the human lysosomal α-L-fucosidase, FUCA1.
The enzymatic activity of α-L-fucosidase was assayed at 37 °C by incubating with 1.5 mM 4-methylumbelliferyl-α-L-fucopyranoside as substrate in 150 mM McIlvaine buffer, pH 4.5, supplemented with 0.1% (w/v) BSA. […] The reaction was quenched by adding excess NaOH–glycine (pH 10.6), after which fluorescence was measured with a fluorimeter LS55 (Perkin Elmer) using λEX 366 nm and λEM 445 nm.

[3] = biological target: T3, FUCA1 (Homo sapiens, UniProt P04066); assay: ABP pulldown from Gaucher spleen lysate and LC-MS/MS identification; format: binding; set-up: lysates of spleens from a healthy human individual and a patient suffering from Gaucher disease; from tissue; host or cells: human spleen (normal subject and type 1 Gaucher patient); conditions: 10 μM probe, Gaucher spleen lysate
T3 sequence (P04066 32-466): T1 sequence (P04066 32-466)
Experimental: To further determine the specificity of the developed ABPs, we have analyzed the ABP-labeled proteins in a complex tissue homogenate. For this purpose, we incubated Gaucher spleen lysate with biotinylated ABP 3 or with DMSO only (control) or competitive ABP 3-labeling by first incubating with fluorescent ABP 1. Glycosylated proteins were then enriched via ConA, followed by affinity purification with streptavidin coated paramagnetic beads. The identity of biotinylated and ABP 3-labeled proteins was determined by on-bead digestion with trypsin, peptide analysis by LC-MS/MS and matching against the human UniProt database, using the Mascot search engine as previously reported.[14] […]
Gaucher spleen lysate (1 g) was cut with a sterile scalpel, mixed with 4 mL 25 mM potassium phosphate buffer (pH 6.5, supplemented with 0.1% (v/v) Triton X-100 and protease inhibitor cocktail (Roche)) and sonicated three times for 10 seconds at 100% strength and kept on ice. […] Lysate was then centrifuged for 10 min at 10 000 g, supernatant collected carefully, protein concentration determined and […] total protein was then incubated with either 0.1% (v/v) DMSO, ABP 1 or ABP 3, or firstly with 10 μM ABP 1 followed by 10 μM of ABP 3, each step taking 30 min at 37 °C, in a total volume of 1 mL McIlvaine buffer, pH 4.5. […]

[4] = test system: recombinant α-L-fucosidase from Bacteroides thetaiotaomicron gene 2970; assay: Competitive ABPP in E. coli lysate overexpressing bacterial α-L-fucosidase, ABP 1 labeling; format: binding
Experimental: (§1) All pre-incubations and ABP labeling-reactions occurred for 30 min at 37 °C. Total lysates (50 μg), medium (500 μg) or purified protein preparations (5 μg) were labeled with 1 μM JJB256 1 or JJB244 2, dissolved in 150 mM McIlvaine buffer, pH 4.5, incubating for 30 min at 37 °C. For ABPP, protein preparations were pre-incubated with compounds 4 (100 μM), 6 (100 μM), 7–13 (1 or 5 mM, specified in the main text) prior to the addition of 100 nM fluorescent ABPs. Influence of pH on ABP labeling involved pre-incubation at pH 3–10 prior to addition of 100 nM ABP 1. Direct labeling of retaining β-glucosidases occurred at pH 5.0 in conjunction with 100 nM ABP JJB75. Samples were then denatured with 5× Laemmli buffer (50% (v/v) 1 M Tris–HCl, pH 6.8, 50% (v/v) 100% glycerol, 10% (w/v) DTT, 10% (w/v) SDS, 0.01% (w/v) bromophenol blue), boiled for 4 min at 100 °C, and separated by gel electrophoresis on 10% (w/v) SDS-PAGE gels running continuously at 90 V.[13],[14] Wet slab-gels were scanned on fluorescence using a Typhoon Variable Mode Imager (Amersham Biosciences) using λEX 488 nm and λEM 520 nm (band pass filter 40 nm) for green fluorescent JJB256 1 and λEX 532 nm and λEM 610 nM (band pass filter 30 nm) for red fluorescent JJB244 2 and JJB75.

[5] = biological target: T4, α-L-fucosidase (Homo sapiens, UniProt P04066); assay: Competitive ABPP in human spleen lysates (healthy and Gaucher), ABP 1 labeling; format: binding
T4 construct: lysates of spleens from a healthy human individual and a patient suffering from Gaucher disease; from tissue; host or cells: human spleen (normal subject and type 1 Gaucher patient)
T4 sequence (P04066 32-466): T1 sequence (P04066 32-466)
Description: Subsequently, we exposed lysates of spleens from a healthy human individual and a patient suffering from Gaucher disease to ABP 1. […] The labeled band from human Gaucher spleen lysate is considerably more intense than the corresponding band in healthy human spleen, reflecting elevated α-L-fucosidase activity in the former. […] As before, labeling with ABP 1 was suppressed after pre-treatment with either N-benzoyl aziridine 4 or L-fuconojirimycin 6. To further ascertain that […] labels mammalian GH29 retaining α-L-fucosidases we performed a number of control experiments (ESI Fig. S2a ^†). Compound 1 labeled both FUCA1 and FUCA2 that were overexpressed in COS cells. Treatment of murine spleen lysates with 1 yielded a result essentially as observed for healthy human tissue (ESI Fig. S2b ^†).
All pre-incubations and ABP labeling-reactions occurred for 30 min at 37 °C. Total lysates (50 μg), medium (500 μg) or purified protein preparations (5 μg) were labeled with 1 μM JJB256 1 or JJB244 2, dissolved in 150 mM McIlvaine buffer, pH 4.5, incubating for 30 min at 37 °C. […] Wet slab-gels were scanned on fluorescence using a Typhoon Variable Mode Imager (Amersham Biosciences) using λEX 488 nm and λEM 520 nm (band pass filter 40 nm) for green fluorescent JJB256 1 and λEX 532 nm and λEM 610 nM (band pass filter 30 nm) for red fluorescent JJB244 2 and JJB75.

[6] = biological target: T3, FUCA1; assay: Competitive ABPP on recombinant FUCA1 with ABP 1 labeling as readout; format: binding; set-up: expressed in transfected cells; host or cells: COS-7; conditions: competitive ABPP format
Experimental: as §1

SMILES	IC50 [1]	IC50 [2]	suppression of ABP 1 labeling after pre-treatment [5]	further results
C[C@H]1[C@@H](O)[C@@H](O)[C@H](O)[C@H]2[C@@H]1N2C(=O)c1ccccc1 [compound 4]	515 ± 72.9 nM	372 ± 21.2 nM	suppressed	blocking of ABP 1 labeling of major 50 kD band ([4]; pre-incubation with 100 μM): blocked; fold less active ([2]; compared to 5): about eight-fold
CC(=O)N1[C@@H]2[C@@H](C)[C@@H](O)[C@@H](O)[C@H](O)[C@@H]21 [compound 5]	77.9 ± 9.1 nM	46.8 ± 3.4 nM	–	–
C[C@@H]1NC[C@@H](O)[C@H](O)[C@@H]1O.Cl [compound 6, 1-deoxy-L-fuconojirimycin, reference compound]	–	–	suppressed	blocking of ABP 1 labeling of major 50 kD band ([4]; pre-incubation with 5 mM): blocked; blocking of ABP 1 labeling of α-L-fucosidase [6]: able to inhibit FUCA1

The remaining molecules from weak to strong by IC50 [2], led by results:

IC50 [1]	IC50 [2]	SMILES	suppression of ABP 1 labeling after pre-treatment [5]	further results
158 ± 22 nM	8.7 ± 1.2 nM	COc1ccc(C2=[N+]3C(=C(CCCCc4cn(CCCCCCCC(=O)N5[C@@H]6[C@@H](C)[C@@H](O)[C@@H](O)[C@H](O)[C@@H]65)nn4)c4ccc(-c5ccc(OC)cc5)n4[B-]3(F)F)C=C2)cc1 [compound 2]	–	–
65.4 ± 7.5 nM	8.7 ± 1.1 nM	C[C@H]1[C@@H](O)[C@@H](O)[C@H](O)[C@H]2[C@@H]1N2C(=O)CCCCCCCN=[N+]=[N-] [compound 23]	–	fold increase in enzyme inhibition ([2]; comparing 5 with 23): 5 fold
–	7.2 ± 1.1 nM	C[C@H]1[C@@H](O)[C@@H](O)[C@H](O)[C@H]2[C@@H]1N2C(=O)CCCCCCCn1cc(CNC(=O)CCCCCNC(=O)CCCC[C@@H]2SC[C@@H]3NC(=O)N[C@@H]32)nn1 [compound 3]	–	identification of FUCA1 after pull-down [3]: one of the top identified proteins

Source: publication PMC5654414, “In vitro and in vivo comparative and competitive activity-based protein profiling of GH29 α-L-fucosidases” (Chemical Science, 2015)
